Converted amounts (≈) assume the structure as drawn.

Consider 34 molecules from patent publication US6972286B2, “Oxazolidinones having a benzannulated 6- or 7-membered heterocycle” (Pharmacia and Upjohn Company, priority 2000, dated 2005).

The subject of this assay is Streptococcus pneumoniae. Put plainly: Minimum inhibitory concentration (MIC) by agar dilution. The settings on record: in vitro, agar dilution (NCCLS 1993), Streptococcus pneumoniae strain SPNE 9912; read-out: Antibacterial Activity Minimum Inhibitory Concentration SPNE 9912. The assay is classed as cell-based. The text has this:
The oxazolidinone antibacterial agents of this invention have useful activity against a variety of organisms. The in vitro activity of compounds of this invention can be assessed by standard testing procedures such as the determination of minimum inhibitory concentration (MIC) by agar dilution as described in “Approved Standard. Methods for Dilution Antimicrobial Susceptibility Tests for Bacteria That Grow Aerobically”, 3rd. ed., published 1993 by the National Committee for Clinical Laboratory Standards, Villanova, Pa. USA.
Consider `CC(=O)NC[C@H]1CN(c2ccc3c(c2)CCOC3)C(=O)O1` [Example 8, (−)-N-[[(5S)-3-(3,4-Dihydro-1H-2-benzopyran-6-yl)-2-oxo-5-oxazolidinyl]methyl]acetamide], for which the MIC stood at 4 µg/mL (≈ 13.8 µM).

For the molecule `CC(=S)NC[C@H]1CN(c2ccc3c(c2)CSCC3)C(=O)O1` [Example 15, (+)-N-[[(5S)-3-(3,4-Dihydro-1H-2-benzothiopyran-7-yl)-2-oxo-5-oxazolidinyl]methyl]ethanethioamide], the MIC stood at 0.125 µg/mL (≈ 0.388 µM).

Turning to `CC(=O)NC[C@H]1CN(c2ccc3c(c2)CCN(C(=O)c2ccccc2)CC3)C(=O)O1` [Example 27, N-{[(5S)-3-(3-Benzoyl-1,2,4,5-tetrahydro-1H-3-benzazepin-7-yl)-2-oxo-1,3-oxazolidin-5-yl]methyl}acetamide], the MIC amounted to 1 µg/mL (≈ 2.45 µM).

For the molecule `CC(=O)NC[C@H]1CN(c2ccc3c(c2)CCN(c2nnc(NC(=O)CO)s2)CC3)C(=O)O1` [Example 46, N-[5-(7-{(5S)-5-[(Acetylamino)methyl]-2-oxo-1,3-oxazolidin-3-yl}-1,2,4,5-tetrahydro-3H-3-benzazepin-3-yl)-1,3,4-thiadiazol-2-yl]-2-hydroxyacetamide], the MIC came to 0.5 µg/mL (≈ 1.09 µM).

With `CC(=O)CCC(=O)N1CCc2ccc(N3C[C@H](CNC(C)=O)OC3=O)cc2CC1` [Example 34], the MIC stood at 2 µg/mL (≈ 4.98 µM).

Consider `CC(=O)NC[C@H]1CN(c2ccc3c(c2)CCN(C(C)=O)CC3)C(=O)O1` [Example 25, N-{[(5S)-3-(3-Acetyl-1,2,4,5-tetrahydro-1H-3-benzazepin-7-yl)-2-oxo-1,3-oxazolidin-5-yl]methyl}acetamide], for which the MIC was 1 µg/mL (≈ 2.9 µM).

Take `CC(=O)NC[C@H]1CN(c2ccc3c(c2)CCN(C(=O)Oc2ccccc2)CC3)C(=O)O1` [Example 29, Phenyl 7-{(5S)-5-[(acetylamino)methyl]-2-oxo-1,3-oxazolidin-3-yl}-1,2,4,5-tetrahydro-3H-3-benzazepine-3-carboxylate]: the MIC came to 2 µg/mL (≈ 4.72 µM).

Turning to `CC(=S)NC[C@H]1CN(c2ccc3c(c2)CN(C=O)CC3)C(=O)O1` [Example 18, (+)-N-[[(5S)-3-[2-Formyl-1,2,3,4-tetrahydro-7-isoquinolinyl]-2-oxo-5-oxazolidinyl]methyl]ethanethioamide], the MIC worked out at 1 µg/mL (≈ 3 µM).

`CC(=O)NC[C@H]1CN(c2ccc3c(c2)CCCN(C(C)=O)C3)C(=O)O1` [Example 38, N-{[(5S)-3-(2-Acetyl-1,3,4,5-tetrahydro-1H-2-benzazepin-7-yl)-2-oxo-1,3-oxazolidin-5-yl]methyl}acetamide]: the MIC came out at 2 µg/mL (≈ 5.79 µM).

Regarding `CC(=O)NC[C@H]1CN(c2ccc3c(c2)CCN(C=O)C3)C(=O)O1` [Example 2, (−)-N-[[(5S)-3-[2-Formyl-1,2,3,4-tetrahydro-6-isoquinolinyl]-2-oxo-5-oxazolidinyl]methyl]acetamide], the MIC was 1 µg/mL (≈ 3.15 µM).

As for `CC(=O)NC[C@H]1CN(c2ccc3c(c2)CCN(C(=O)COC(C)=O)C3)C(=O)O1` [Example 3, (−)-N-[[(5S)-3-[2-[(Acetyloxy)acetyl]-1,2,3,4-tetrahydro-6-isoquinolinyl]-2-oxo-5-oxazolidinyl]methyl]acetamide], the MIC is 1 µg/mL (≈ 2.57 µM).

For `CC(=S)NC[C@H]1CN(c2ccc3c(c2)CCN(C(=O)CO)CC3)C(=O)O1` [Example 41, N-{[(5S)-3-(3-Glycoloyl-1,2,4,5-tetrahydro-1H-3-benzazepin-7-yl)-2-oxo-1,3-oxazolidin-5-yl]methyl}ethanethioamide], the MIC came out at 0.125 µg/mL (≈ 0.331 µM).

With `COC(=O)N1CCc2cc(N3C[C@H](CNC(C)=S)OC3=O)ccc2C1` [Example 5, (+)-Methyl 6-[(5S)-5-[(ethanethioylamino)methyl]-2-oxo-3-oxazolidinyl]-3,4-dihydro-2(1H)-isoquinolinecarboxylate], the MIC is below 0.5 µg/mL.

For `CC(=O)NC[C@H]1CN(c2ccc3c(c2)CCN(C(=O)Cc2ccccc2)CC3)C(=O)O1` [Example 30, N-[((5S)-3-{3-(Phenyl)acetyl-1,2,4,5-tetrahydro-1H-3-benzazepin-7-yl}-2-oxo-1,3-oxazolidin-5-yl)methyl]acetamide], the MIC was 1 µg/mL (≈ 2.37 µM).

As to `CC(=O)NC[C@H]1CN(c2ccc3c(c2)CCN(C(=O)OCc2ccccc2)CC3)C(=O)O1` [Example 22], the MIC was below 0.5 µg/mL.

For the molecule `CC(=O)NC[C@H]1CN(c2ccc3c(c2)CCN(C=O)CC3)C(=O)O1` [Example 23, N-{[(5S)-3-(3-Formyl-1,2,4,5-tetrahydro-1H-3-benzazepin-7-yl)-2-oxo-1,3-oxazolidin-5-yl]methyl}acetamide], the MIC is below 0.5 µg/mL.

In the case of `COC(=O)N1CCc2cc(N3C[C@H](CNC(C)=O)OC3=O)ccc2C1` [Example 1, (−)-Methyl 6-[(5S)-5-[(acetylamino)methyl]-2-oxo-3-oxazolidinyl]-3,4-dihydro-2(1H)-isoquinolinecarboxylate], the MIC stood at 1 µg/mL (≈ 2.88 µM).

Turning to `CC(=S)NC[C@H]1CN(c2ccc3c(c2)CCOC3)C(=O)O1` [Example 9, (+)-N-[[(5S)-3-(3,4-Dihydro-1H-2-benzopyran-6-yl)-2-oxo-5-oxazolidinyl]methyl]ethanethioamide], the MIC was found to be 1 µg/mL (≈ 3.26 µM).

`CC(=S)NC[C@H]1CN(c2ccc3c(c2)CS(=O)(=O)CC3)C(=O)O1` [Example 16, (+)-N-[[(5S)-3-(3,4-Dihydro-2,2-dioxido-1H-2-benzothiopyran-7-yl)-2-oxo-5-oxazolidinyl]methyl]ethanethioamide]: the MIC worked out at 1 µg/mL (≈ 2.82 µM).

Take `CC(=O)NC[C@H]1CN(c2ccc3c(c2)CCN(C(=O)CO)C3)C(=O)O1` [Example 4, (−)-N-[[(5S)-3-[2-[(Hydroxy)acetyl]-1,2,3,4-tetrahydro-6-isoquinolinyl]-2-oxo-5-oxazolidinyl]methyl]acetamide]: the MIC stood at 1 µg/mL (≈ 2.88 µM).

Consider `COC(=O)N1CCc2ccc(N3C[C@H](CNC(C)=O)OC3=O)cc2CC1` [Example 26, Methyl 7-{(5S)-5-[(acetylamino)methyl]-2-oxo-1,3-oxazolidin-3-yl}-1,2,4,5-tetrahydro-3H-3-benzazepine-3-carboxylate], for which the MIC was found to be 1 µg/mL (≈ 2.77 µM).

`CSc1nnc(N2CCc3ccc(N4C[C@H](CNC(C)=O)OC4=O)cc3CC2)s1` [Example 43, N-({(5S)-3-[3-(5-Methylthio-1,3,4-thiadiazol-2-yl)-1,2,4,5-tetrahydro-1H-3-benzazepin-7-yl]-2-oxo-1,3-oxazolidin-5-yl}methyl)acetamide]: the MIC was 0.5 µg/mL (≈ 1.15 µM).

In the case of `CC(=O)NC[C@H]1CN(c2ccc3c(c2)CCCN(C(=O)CO)C3)C(=O)O1` [Example 37, N-{[(5S)-3-(2-Glycoloyl-1,3,4,5-tetrahydro-1H-3-benzazepin-7-yl)-2-oxo-1,3-oxazolidin-5-yl]methyl}acetamide], the MIC stood at 1 µg/mL (≈ 2.77 µM).

For `CC(=O)NC[C@H]1CN(c2ccc3c(c2)C[S+]([O-])CC3)C(=O)O1` (stereo partly drawn) [Example 17, N-[[(5S)-3-(3,4-Dihydro-2-oxido-1H-2-benzothiopyran-7-yl)-2-oxo-5-oxazolidinyl]methyl]acetamide], the MIC is 2 µg/mL (≈ 6.2 µM).

Regarding `CC(=S)NC[C@H]1CN(c2ccc3c(c2)CCCCN3C=O)C(=O)O1` [Example 21, N-{[(5S)-3-(1-Formyl-2,3,4,5-tetrahydro-1H-1-benzazepin-7-yl)-2-oxo-1,3-oxazolidin-5-yl]methyl}ethanethioamide], the MIC was below 0.5 µg/mL.

For the molecule `CC(=S)NC[C@H]1CN(c2ccc3c(c2)CCSCC3)C(=O)O1` [Example 49, N-[[(5S)-2-Oxo-3-(1,2,4,5-tetrahydro-3-benzothiepin-7-yl)-5-oxazolidinyl]methyl]ethanethioamide], the MIC is 0.5 µg/mL (≈ 1.49 µM).

Consider `CC(=O)NC[C@H]1CN(c2ccc3c(c2)CCN(c2nnc(C)s2)CC3)C(=O)O1` [Example 44, N-({(5S)-3-[3-(5-Methyl-1,3,4-thiadiazol-2-yl)-1,2,4,5-tetrahydro-1H-3-benzazepin-7-yl]-2-oxo-1,3-oxazolidin-5-yl}methyl)acetamide], for which the MIC is 1 µg/mL (≈ 2.49 µM).

With `CC(=S)NC[C@H]1CN(c2ccc3c(c2)CN(C(=O)CO)CC3)C(=O)O1` [Example 19, (+)-N-[[(5S)-3-[2-[(Hydroxy)acetyl]-1,2,3,4-tetrahydro-7-isoquinolinyl]-2-oxo-5-oxazolidinyl]methyl]ethanethioamide], the MIC amounted to 2 µg/mL (≈ 5.5 µM).

For the molecule `CC(=O)NC[C@H]1CN(c2ccc3c(c2)CCN(S(C)(=O)=O)CC3)C(=O)O1` [Example 28, N-({(5)-3-[3-(Methylsulfonyl)-1,2,4,5-tetrahydro-1H-3-benzazepin-7-yl]-2-oxo-1,3-oxazolidin-5-yl}methyl)acetamide], the MIC was 4 µg/mL (≈ 10.5 µM).

`CC(=O)NC[C@H]1CN(c2ccc3c(c2)CCN(C(=O)Cc2cccc(C(F)(F)F)c2)CC3)C(=O)O1` [Example 32]: the MIC is 2 µg/mL (≈ 4.09 µM).

Turning to `CC(=S)NC[C@H]1CN(c2ccc3c(c2)CCN(C=O)C3)C(=O)O1` [Example 6, (+)-N-[[(5S)-3-[2-Formyl-1,2,3,4-tetrahydro-6-isoquinolinyl]-2-oxo-5-oxazolidinyl]methyl]ethanethioamide], the MIC is below 0.5 µg/mL.

Regarding `CC(=O)NC[C@H]1CN(c2ccc3c(c2)CCCN(C(=O)Nc2ccccc2)C3)C(=O)O1` [Example 40, 7-{(5S)-5-[(Acetylamino)methyl]-2-oxo-1,3-oxazolidin-3-yl}-N-phenyl-1,3,4,5-tetrahydro-2H-2-benzazepine-2-carboxamide], the MIC stood at 1 µg/mL (≈ 2.37 µM).

Consider `CC(=O)NC[C@H]1CN(c2ccc3c(c2)CCCCN3C=O)C(=O)O1` [Example 20, N-{[(5S)-3-(1-Formyl-2,3,4,5-tetrahydro-1H-1-benzazepin-7-yl)-2-oxo-1,3-oxazolidin-5-yl]methyl}acetamide], for which the MIC was below 0.5 µg/mL.

In the case of `CC(=O)NC[C@H]1CN(c2ccc3c(c2)CCS(=O)(=O)CC3)C(=O)O1` [Example 48, N-[[(5S)-2-Oxo-3-(1,2,4,5-tetrahydro-3,3-dioxido-3-benzothiepin-7-yl)-5-oxazolidinyl]methyl]acetamide], the MIC came out at 8 µg/mL (≈ 22.7 µM).
